Experiments:
[1] = system: Ovary tumoral cell line; assay: In vitro cytotoxic (antimitotic) activity on tumoral cell lines, ovary; format: cell-based
Source text: (§1) Taxol and colchicine are the comparison substances.
(§2) In vitro cytotoxic activity of some novel colchicine derivatives.

[2] = system: Colon tumoral cell line; assay: In vitro cytotoxic (antimitotic) activity on tumoral cell lines, colon; format: cell-based
Source text: as §1, §2

[3] = system: Breast tumoral cell line; assay: In vitro cytotoxic (antimitotic) activity on tumoral cell lines, breast; format: cell-based
Source text: as §1, §2

[4] = system: Lung tumoral cell line; assay: In vitro cytotoxic (antimitotic) activity on tumoral cell lines, lung; format: cell-based
Source text: as §1, §2

[5] = system: resistant cell lines; assay: cells; details: read-out: In vitro cytotoxic activity, IC50, Cell. resist.
Source text: as §1
Formulations for the parenteral, oral, transdermal, epicutaneous administrations can be conveniently prepared.

| Compound | IC50 [1] | IC50 [2] | IC50 [3] | IC50 [4] | IC50 [5] |
| --- | --- | --- | --- | --- | --- |
| COc1cc2c(c(OC)c1OC)-c1ccc(OC)c(=O)cc1[C@@H](NC(C)=O)CC2 [Colchicine, colchicine] | 5.3 nM | 3.9 nM | 4.4 nM | 16 nM | 112 nM |
| COc1c(OC(C)C)cc2c(c1OC)-c1ccc(SC)c(=O)cc1[C@@H](NC(=O)C(F)(F)F)CC2 [Compound IIZ, N-desacetyl-N-trifluoroacetyl-3-O-demethyl-3-O-isopropyl-thiocolchicine] | 9.4 nM | 1.8 nM | 5 nM | 19 nM | 11 nM |
| COc1cc2c(c(OC)c1OC)-c1ccc(SC)c(=O)cc1[C@@H](NC(=O)[C@@H](NC(=O)C(F)(F)F)c1ccccc1)CC2 [Compound IVZ, N-(N-trifluoroacetyl-α-phenylglycyl)-desacetylthiocolchicine] | 6.1 nM | 2.2 nM | 4.1 nM | 12 nM | 7 nM |
| COc1c(OC2CCCC2)cc2c(c1OC)-c1ccc(SC)c(=O)cc1[C@@H](NC(=O)C(F)(F)F)CC2 [Compound IZ, N-desacetyl-N-trifluoroacetyl-3-O-demethyl-3-O-cyclopentyl-thiocolchicine] | 4.2 nM | 2.6 nM | 6.2 nM | 8 nM | 26 nM |
| CC(=O)O[C@H]1C(=O)[C@@]2(C)[C@H]([C@H](OC(=O)c3ccccc3)[C@]3(O)C[C@H](OC(=O)[C@H](O)[C@@H](NC(=O)c4ccccc4)c4ccccc4)C(C)=C1C3(C)C)[C@]1(OC(C)=O)CO[C@@H]1C[C@@H]2O [Taxol, reference compound] | 6.1 nM | 3.5 nM | 3.2 nM | 1.7 nM | 299 nM |
